Test results: patent US11286263B2, “Macrocyclic fluorine substituted indole derivatives” (The Broad Institute, Inc., priority 2017, dated 2022)
Several values for one entry are separate records, joined by “and”; a condition that tells them apart may be missing. Equal entries are not always repeated. Structures can show the parent of a compound that is named as a salt. Where two headings read alike, the source gives them in different places.

Assays:
A2780 = experiment: Antiproliferation assay A2780 (Assay 7); assay type: cell-based; details: A2780 cells, CellTiter-Glo, single determinations, read-out: IC50 Antiproli A2780
How it was run: (§1)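 Cells were incubated with compounds for 72 h at 37°C. Viability was then read by CellTiter-Glo luminescence, and a parallel day 0 plate read the same way gave the time-zero signal.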

SUDHL5 [1] = experiment: Induction of caspase-3/7 activity, SUDHL5 (Assay 4); assay type: cell-based; details: SUDHL5 cells
How it was run: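 DLBCL lines treated with compounds for 3 h at 37° C.; caspase-3/7 activity read by Caspase-Glo 3/7 luminescence. Medium-only background subtracted; EC50 fitted with bottom fixed at 1 and top set to reference compound's maximal induction.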

SUDHL5 [2] = experiment: Induction of cytotoxicity, SUDHL5 (Assay 6); details: read-out: IC50 Cytotox SUDHL5 [M] (median), SUDHL5 cells, 5 h, CellTiter-Glo
MCL-1 = MCL-1 (Homo sapiens (Human), UniProt Q07820, K194A/K197A/R201A); experiment: Protein-protein interaction assay MCL-1/Noxa BH3 peptide (MCL-1 assay), TR-FRET; assay type: binding; details: MCL-1/Noxa BH3 peptide TR-FRET; median
How it was run: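 TR-FRET competition between MBP-MCL-1 (173-321, 1 nM) and biotin-Noxa BH3 peptide (1 nM) with anti-MBP-Eu/streptavidin-XL665; 11 compound levels 0.1 nM–20 μM, 10 min preincubation. Incubated 1 h at 22 °C then overnight at 4 °C, pH 7 Tris buffer. 665/620 ratio normalized to DMSO and no-MCL-1; 4-parameter IC50.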

MV-4-11 = experiment: Antiproliferation assay MV-4-11 (Assay 7); assay type: cell-based; details: MV-4-11 cells, CellTiter-Glo, single determinations, read-out: IC50 Antiproli MV-4-11
How it was run: as §1

[3] = Homo sapiens, SU-DHL-5, 3 h, Caspase-Glo 3/7, median

MCL-1, sequence (Q07820 whole entry K194A/K197A/R201A, looked up): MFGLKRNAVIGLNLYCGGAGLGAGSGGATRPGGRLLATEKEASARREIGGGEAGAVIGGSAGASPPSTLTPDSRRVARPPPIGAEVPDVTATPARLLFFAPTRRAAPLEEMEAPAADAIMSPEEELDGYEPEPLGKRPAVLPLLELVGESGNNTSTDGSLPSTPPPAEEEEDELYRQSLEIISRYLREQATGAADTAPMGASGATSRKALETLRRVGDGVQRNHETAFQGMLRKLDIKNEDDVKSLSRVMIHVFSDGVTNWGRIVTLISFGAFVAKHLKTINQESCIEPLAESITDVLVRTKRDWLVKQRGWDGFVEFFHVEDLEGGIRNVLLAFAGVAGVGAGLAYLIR

Row | IC50 (A2780; Homo sapiens, A2780, 72 h) | EC50 (SUDHL5 [1]; [3]) | IC50 (MCL-1) | IC50 (MV-4-11; Homo sapiens, MV4-11, 72 h) | IC50 (MV-4-11; 72 h) | IC50 (A2780; 72 h) | EC50 (SUDHL5 [1]; 3 h, Caspase-Glo 3/7, median) | IC50 (A2780; 72 h, listed as 09) | IC50 (MV-4-11; 72 h, listed as 09) | IC50 (A2780; 72 h, listed as 01) | IC50 (MV-4-11; 72 h, listed as 01) | SMILES | IC50 (SUDHL5 [2]; Homo sapiens, SU-DHL-5, 5 h) | IC50 (SUDHL5 [2])
1 | > 33000 nM | 1700 nM | 1.1 nM | 6530 nM | 4390 nM |  |  |  |  |  |  | Cc1nn(C)c2c1-c1c(F)ccc3c(CCCOc4cccc5ccccc45)c(C(=O)O)n(c13)CCCCOC2 (racemic) [Example 10, (rac)-13-fluoro-10,12-dimethyl-1-(3-(naphthalen-1-yloxy)propyl)-4,5,6,7,9,10-hexahydro-pyrazolo[4′,3′:9,10][1]oxa[6]azacycloundecino[8,7,6-hi]indole-2-carboxylic acid] | 1.8e-06 M | 
2 |  |  | 0.98 nM |  | 679 nM and 412 nM | 4110 nM | 340 nM |  |  |  |  | Cc1c2c(nn1C)COCCCCn1c(C(=O)O)c(CCCOc3cccc4cc(F)ccc34)c3ccc(F)c-2c31 (single isomer, unassigned; enantiomer 1) [Example 13, 4-fluoro-7-{3-[(6-fluoronaphthalen-1-yl)oxy]propyl}-2,3-dimethyl-2,10,11,12,13,15-hexahydro-pyrazolo[4′,3′:9,10][1,6]oxazacycloundecino[8,7,6-hi]indole-8-carboxylic acid-N-ethylethanamine salt (enantiomer 1)] |  | 3.9e-07 M
3 | 23100 nM | 2700 nM | 2.4 nM | 7500 nM |  |  |  | 20700 nM | 6040 nM |  |  | Cc1nn(C)c2c1-c1c(F)ccc3c(CCCOc4cccc5ccccc45)c(C(=O)O)n(c13)C/C=C\COC2 (racemic) [Example 9, (rac)-(Z)-13-fluoro-10,12-dimethyl-1-(3-(naphthalen-1-yloxy)propyl)-4,7,9,10-tetrahydro-pyrazolo[4′,3′:9,10][1]oxa[6]azacycloundecino[8,7,6-hi]indole-2-carboxylic acid] | 2.9e-06 M | 
4 | 12100 nM | 2500 nM | 1.8 nM | 6070 nM | 8250 nM |  |  |  |  |  |  | CCc1c2c(nn1C)COCCCCn1c(C(=O)O)c(CCCOc3cc(C)c(Cl)c(C)c3)c3ccc(F)c-2c31 (racemic) [Example 31, (rac)-1-(3-(4-chloro-3,5-dimethylphenoxy)propyl)-12-ethyl-13-fluoro-11-methyl-4,5,6,7,9,11-hexahydropyrazolo[4′,3′:9,10][1]oxa[6]azacycloundecino[8,7,6-hi]indole-2-carboxylic acid] | 2.9e-06 M | 
5 | 28200 nM | 1400 nM | 1.4 nM | 6200 nM | 6560 nM |  |  |  |  |  |  | CCc1nn(C)c2c1-c1c(F)ccc3c(CCCOc4cccc5c4CCC5)c(C(=O)O)n(c13)CCCCOC2 (racemic) [Example 45, (rac)-1-(3-((2,3-dihydro-1H-inden-4-yl)oxy)propyl)-12-ethyl-13-fluoro-10-methyl-4,5,6,7,9,10-hexahydropyrazolo[4′,3′:9,10][1]oxa[6]azacycloundecino[8,7,6-hi]indole-2-carboxylic acid] | 1.9e-06 M | 
6 | 9170 nM | 1200 nM | 1.5 nM | 2040 nM | 2550 nM |  |  |  |  |  |  | CCc1c2c(nn1C)COCCCCn1c(C(=O)O)c(CCCOc3cccc4c3CCCC4)c3ccc(F)c-2c31 (racemic) [Example 29, (rac)-12-ethyl-13-fluoro-11-methyl-1-(3-((5,6,7,8-tetrahydronaphthalen-1-yl)oxy)propyl)-4,5,6,7,9,11-hexahydropyrazolo[4′,3′:9,10][1]oxa[6]azacycloundecino[8,7,6-hi]indole-2-carboxylic acid] | 1.2e-06 M | 
7 | 15200 nM | 800 nM | 1.1 nM | 4850 nM | 4800 nM and 4750 nM |  |  |  |  |  |  | Cc1nn(C)c2c1-c1c(F)ccc3c(CCCOc4cccc5cc(F)ccc45)c(C(=O)O)n(c13)CCCCOC2 (racemic) [Example 32, (rac)-13-fluoro-1-(3-((6-fluoronaphthalen-1-yl)oxy)propyl)-10,12-dimethyl-4,5,6,7,9,10-hexahydropyrazolo[4′,3′:9,10][1]oxa[6]azacycloundecino[8,7,6-hi]indole-2-carboxylic acid] | 1.1e-06 M | 
8 | > 33000 nM | 1400 nM | 1.8 nM | 11300 nM |  |  |  |  |  | 21100 nM | 14200 nM | Cc1c2c(nn1C)COC/C=C\Cn1c(C(=O)O)c(CCCOc3cccc4ccccc34)c3ccc(F)c-2c31 (racemic) [Example 1, (rac)-(11Z)-4-fluoro-2,3-dimethyl-7-[3-(naphthalen-1-yloxy)propyl]-2,10,13,15-tetrahydro-pyrazolo[4′,3′:9,10][1,6]oxazacycloundecino[8,7,6-hi]indole-8-carboxylic acid] | 1.2e-06 M | 
